{"source": "ChEMBL document CHEMBL1201862", "about": "“PubChem BioAssay data set” (2004)", "key": {"[1]": {"assay": "inhibitors of intracellular T. cruzi replication, confirmation, NIH3T3 host cells, beta-gal luminescence (AID 2044);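 note: luminescent beta-galactosidase reporter signal from transgenic T. cruzi replicating inside host cells; inhibitors lower the luminescence signal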", "type": "functional, cell-based"}, "[2]": {"assay": "cytotoxicity toward NIH3T3 fibroblasts, dose response, counter-screen, cell-based, ATP luminescence, mouse fibroblasts (AID 2010);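 note: cells exposed to compound for about 90 hours before reading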", "type": "functional"}, "[3]": {"target": "Disintegrin and metalloproteinase domain-containing protein 17 (Homo sapiens, UniProt P78536)", "sequence (P78536 whole entry, the tested form may be a part)": "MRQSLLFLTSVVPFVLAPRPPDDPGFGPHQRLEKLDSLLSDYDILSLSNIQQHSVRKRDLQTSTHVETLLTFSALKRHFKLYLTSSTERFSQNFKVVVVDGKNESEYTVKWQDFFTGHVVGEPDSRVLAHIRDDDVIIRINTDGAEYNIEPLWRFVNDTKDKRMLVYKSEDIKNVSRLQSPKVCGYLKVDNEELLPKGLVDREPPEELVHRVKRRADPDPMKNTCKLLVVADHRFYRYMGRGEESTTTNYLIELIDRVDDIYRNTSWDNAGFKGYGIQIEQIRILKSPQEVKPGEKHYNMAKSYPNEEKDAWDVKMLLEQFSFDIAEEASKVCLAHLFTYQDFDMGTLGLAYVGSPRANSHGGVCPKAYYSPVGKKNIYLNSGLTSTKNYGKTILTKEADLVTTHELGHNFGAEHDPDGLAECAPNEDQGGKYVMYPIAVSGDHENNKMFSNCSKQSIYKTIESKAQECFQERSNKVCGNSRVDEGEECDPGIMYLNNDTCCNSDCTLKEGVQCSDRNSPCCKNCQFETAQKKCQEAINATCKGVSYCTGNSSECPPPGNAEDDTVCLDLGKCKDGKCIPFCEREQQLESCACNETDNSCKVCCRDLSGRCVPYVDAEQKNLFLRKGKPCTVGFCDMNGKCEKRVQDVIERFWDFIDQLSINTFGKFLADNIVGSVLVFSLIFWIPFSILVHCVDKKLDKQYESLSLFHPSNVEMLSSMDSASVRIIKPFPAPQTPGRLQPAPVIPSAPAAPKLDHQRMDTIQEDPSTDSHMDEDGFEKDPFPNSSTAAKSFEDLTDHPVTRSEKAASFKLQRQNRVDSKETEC", "assay": "exosite inhibitors of ADAM17, dose response, biochemical (AID 743260)"}, "[4]": {"assay": "ADAM10 protease inhibitors, dose response, selectivity assay for ADAM17 exosite inhibitor project, biochemical, FRET peptide substrate, recombinant human ADAM10 (AID 743259);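 note: ADAM10 enzyme cleaving a FRET peptide substrate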"}, "Beta-galactosidase": {"target": "Beta-galactosidase (Escherichia coli, UniProt Q8VNN2)", "sequence (Q8VNN2 whole entry)": "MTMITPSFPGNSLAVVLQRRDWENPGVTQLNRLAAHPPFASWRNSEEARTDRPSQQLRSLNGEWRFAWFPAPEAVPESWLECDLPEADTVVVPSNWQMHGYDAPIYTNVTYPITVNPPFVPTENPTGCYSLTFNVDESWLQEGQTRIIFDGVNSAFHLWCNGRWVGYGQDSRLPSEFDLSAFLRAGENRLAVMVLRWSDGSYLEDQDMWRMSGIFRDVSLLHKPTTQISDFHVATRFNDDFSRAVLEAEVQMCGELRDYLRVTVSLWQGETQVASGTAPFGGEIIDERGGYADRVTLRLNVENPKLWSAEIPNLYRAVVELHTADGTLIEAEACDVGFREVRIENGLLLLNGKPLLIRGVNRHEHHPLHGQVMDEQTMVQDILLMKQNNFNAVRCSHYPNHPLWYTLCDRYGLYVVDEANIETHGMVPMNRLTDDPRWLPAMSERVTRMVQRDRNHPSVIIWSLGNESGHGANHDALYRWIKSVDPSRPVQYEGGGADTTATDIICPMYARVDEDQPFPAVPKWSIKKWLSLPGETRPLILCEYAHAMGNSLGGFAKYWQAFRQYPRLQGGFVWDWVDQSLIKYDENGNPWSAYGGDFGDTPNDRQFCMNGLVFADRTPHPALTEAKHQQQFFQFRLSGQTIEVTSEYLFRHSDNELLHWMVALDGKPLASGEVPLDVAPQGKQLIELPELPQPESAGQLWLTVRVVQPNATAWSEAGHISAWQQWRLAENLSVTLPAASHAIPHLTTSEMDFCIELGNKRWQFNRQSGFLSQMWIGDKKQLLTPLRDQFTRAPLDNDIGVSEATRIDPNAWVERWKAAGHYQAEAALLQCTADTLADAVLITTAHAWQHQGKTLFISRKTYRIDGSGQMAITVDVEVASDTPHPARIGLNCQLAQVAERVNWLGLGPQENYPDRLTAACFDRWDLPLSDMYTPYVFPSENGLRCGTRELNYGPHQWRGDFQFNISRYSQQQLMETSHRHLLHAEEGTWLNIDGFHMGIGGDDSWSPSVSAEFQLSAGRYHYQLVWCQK", "assay": "PubChem AID 485352", "type": "functional"}, "[5]": {"target": "T1, Type-1 angiotensin II receptor (Homo sapiens, UniProt P30556)", "T1 sequence (P30556 whole entry)": "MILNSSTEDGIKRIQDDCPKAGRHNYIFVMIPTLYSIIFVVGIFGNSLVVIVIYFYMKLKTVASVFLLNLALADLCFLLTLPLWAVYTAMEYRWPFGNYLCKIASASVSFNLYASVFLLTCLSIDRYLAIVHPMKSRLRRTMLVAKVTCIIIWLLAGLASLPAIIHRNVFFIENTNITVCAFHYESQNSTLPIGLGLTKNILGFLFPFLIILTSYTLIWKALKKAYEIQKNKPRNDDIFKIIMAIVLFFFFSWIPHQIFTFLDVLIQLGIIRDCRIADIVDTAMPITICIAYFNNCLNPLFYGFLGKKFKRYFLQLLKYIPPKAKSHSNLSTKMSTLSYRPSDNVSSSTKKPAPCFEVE", "assay": "AT1 receptor antagonists, dose response, selectivity assay for APJ receptor antagonist project, cell-based, uHTS hits (AID 463214);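 note: antagonist potency against angiotensin II stimulated AT1 response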", "type": "functional"}, "[6]": {"target": "T2, Methionyl-tRNA synthetase, putative (Trypanosoma brucei brucei, UniProt Q38C91)", "T2 sequence (Q38C91 whole entry)": "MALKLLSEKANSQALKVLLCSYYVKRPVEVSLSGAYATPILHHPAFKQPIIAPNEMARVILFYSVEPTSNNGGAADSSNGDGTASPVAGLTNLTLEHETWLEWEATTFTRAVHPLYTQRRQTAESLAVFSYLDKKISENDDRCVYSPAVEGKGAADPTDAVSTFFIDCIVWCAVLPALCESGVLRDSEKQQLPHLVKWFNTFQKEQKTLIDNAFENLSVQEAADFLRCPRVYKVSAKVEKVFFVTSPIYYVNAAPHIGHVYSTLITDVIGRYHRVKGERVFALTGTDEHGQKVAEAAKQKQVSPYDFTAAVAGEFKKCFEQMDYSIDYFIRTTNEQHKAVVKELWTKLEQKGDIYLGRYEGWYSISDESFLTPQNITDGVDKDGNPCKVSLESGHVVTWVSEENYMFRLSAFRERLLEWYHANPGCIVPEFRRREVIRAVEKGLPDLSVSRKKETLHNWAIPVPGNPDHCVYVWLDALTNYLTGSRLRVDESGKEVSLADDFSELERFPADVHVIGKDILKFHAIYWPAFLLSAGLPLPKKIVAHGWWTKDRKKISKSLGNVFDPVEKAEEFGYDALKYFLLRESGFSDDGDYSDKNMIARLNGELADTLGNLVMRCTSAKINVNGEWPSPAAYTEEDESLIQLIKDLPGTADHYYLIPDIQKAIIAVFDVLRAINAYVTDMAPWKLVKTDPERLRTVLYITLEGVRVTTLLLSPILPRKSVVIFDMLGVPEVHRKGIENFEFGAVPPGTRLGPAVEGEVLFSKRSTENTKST", "type": "functional, Trypanosoma brucei brucei strain 927/4 GUTat10.1"}, "[7]": {"assay": "Counterscreen for inhibitors of Trypanosoma brucei methionyl tRNA synthetase (MetRS): Luminescence-based cell-based high throughput dose response assay to identify compounds that are cytotoxic to Jurkat human T lymphocyte cells.", "type": "functional"}, "[8]": {"target": "T2, Methionyl-tRNA synthetase, putative", "type": "functional, Trypanosoma brucei brucei strain 927/4 GUTat10.1", "remark": "listed apart in the source"}, "Paired box protein Pax-8": {"target": "Paired box protein Pax-8 (Homo sapiens, UniProt Q06710)", "sequence (Q06710 whole entry)": "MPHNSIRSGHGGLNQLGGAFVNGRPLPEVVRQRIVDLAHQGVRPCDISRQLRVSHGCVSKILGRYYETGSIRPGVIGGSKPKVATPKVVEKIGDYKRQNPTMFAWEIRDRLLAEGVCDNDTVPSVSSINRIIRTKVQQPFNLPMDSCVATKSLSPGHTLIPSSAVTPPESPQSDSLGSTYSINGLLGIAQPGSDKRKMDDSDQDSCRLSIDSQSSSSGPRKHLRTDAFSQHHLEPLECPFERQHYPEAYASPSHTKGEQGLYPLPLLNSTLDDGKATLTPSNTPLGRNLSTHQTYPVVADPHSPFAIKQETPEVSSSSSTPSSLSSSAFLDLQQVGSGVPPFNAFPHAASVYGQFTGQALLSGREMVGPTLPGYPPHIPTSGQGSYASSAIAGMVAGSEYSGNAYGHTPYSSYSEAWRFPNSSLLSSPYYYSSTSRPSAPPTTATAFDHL", "assay": "inhibitors of PAX8-driven TPO luciferase reporter, dose response, RMG-I cells, cherry-pick (AID 687027);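 note: luciferase reporter driven by Pax8 target thyroperoxidase promoter measured by SteadyGlo luminescence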", "type": "functional, cell-based"}, "[9]": {"assay": "A2780 ovarian cancer cell cytotoxicity, dose response, cytotoxicity control, plate reader, dry powder samples (AID 743046)", "type": "functional, cell-based"}, "[10]": {"assay": "NIH:OVCAR-3 ovarian cancer cell cytotoxicity, dose response, PAX8 inhibitor project, plate reader, dry powder samples (AID 743044)", "type": "functional, cell-based"}, "[11]": {"assay": "IGROV1 ovarian cancer cell cytotoxicity, dose response, PAX8 inhibitor project, plate reader, dry powder samples (AID 743043)", "type": "functional, cell-based", "conditions": "IGROV-1"}, "[12]": {"assay": "cytotoxicity in OVCAR8 ovarian cancer cells, dose response, PAX8 project, cell-based, plate reader, dry powder samples (AID 743197)", "type": "functional", "conditions": "OVCAR-8"}, "[13]": {"assay": "P. falciparum 3D7-ScDHODH growth inhibitors, dose response, SYBR Green, dry powder samples (AID 1159570);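 note: parasite growth measured after 72 hours of compound exposure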", "type": "functional, cell-based"}, "[14]": {"assay": "HepG2 cell cytotoxicity, dose response, cytotoxicity control, plate reader, dry powder samples (AID 1159569);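 note: inhibitor potency with signal falling toward the positive control level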", "type": "functional, cell-based"}, "[15]": {"assay": "P. falciparum Dd2 growth inhibitors, dose response, SYBR Green, cherry-picked samples (AID 1159567)", "type": "functional, cell-based"}, "[16]": {"assay": "P. falciparum Dd2 growth inhibitors, dose response, SYBR Green, dry powder samples (AID 1159566);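 note: potency for growth inhibition with lower SYBR green DNA signal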", "type": "functional, cell-based"}, "[17]": {"assay": "P. falciparum ATP4 D1247Y mutant growth inhibitors, dose response, NITD609-resistant line, SYBR Green, dry powder (AID 1159571);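 note: parasites synchronized at ring stage by sorbitol before testing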", "type": "functional, cell-based"}, "[18]": {"assay": "inhibitors of HIV Env-driven cell fusion, dose response, cherry-pick (AID 652057)", "type": "functional, cell-based"}, "[19]": {"assay": "CEM21 lymphoblast cell cytotoxicity, dose response, cytotoxicity control for viral fusion inhibitor project, CellTiter-Glo luminescence, cherry-picked (AID 652042);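 note: potency for signal decrease meaning cytotoxicity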", "type": "functional, cell-based"}, "[20]": {"assay": "ZM109 Env clade C HIV-1 fusion inhibitors, dose response, HeLa effector, CEM target cells, luciferase, cherry-pick (AID 652058)", "type": "functional, cell-based"}, "[21]": {"assay": "inhibitors of clade B AD8 Env fusion, dose response, cell-based, cherry-pick (AID 652062);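 note: potency is for inhibitors of fusion seen as a drop in luminescence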", "type": "functional"}}, "note": "Calls of active or inactive are those of the source.", "data": [{"molecule": "CC(C)Nc1nc(NC(C)C)nc(N(C#N)CCOc2ccc(Cl)cc2Cl)n1", "values": [{"measurement": "EC50", "setting": "[1]", "value": "1.4 µM (active)"}, {"measurement": "EC50", "setting": "[2]", "value": "> 60 µM (not active)"}, {"measurement": "IC50", "setting": "[3]", "value": "> 69.5 µM (inactive)"}, {"measurement": "IC50", "setting": "[4]", "value": "13.5 µM (inactive)"}]}, {"molecule": "O=C(C[N+]1(CC#Cc2ccccc2)CCOCC1)c1ccc(Cl)cc1", "values": [{"measurement": "EC50", "setting": "Beta-galactosidase", "value": "> 40 µM (inactive)"}, {"measurement": "IC50", "setting": "[5]", "value": "39.4 µM (not active)"}]}, {"molecule": "O=C(CNc1cccc(Cl)c1)c1ccc(Cl)cc1", "values": [{"measurement": "EC50", "setting": "Beta-galactosidase", "value": "> 40 µM (inactive)"}, {"measurement": "IC50", "setting": "[5]", "value": "5.07 µM (active)"}]}, {"molecule": "CN(C)S(=O)(=O)c1cccc(NC(=O)c2cc(-c3cccs3)nn2-c2cccc(Cl)c2)c1", "values": [{"measurement": "IC50", "setting": "[3]", "value": "> 69.5 µM (inactive)"}, {"measurement": "IC50", "setting": "[4]", "value": "> 69.5 µM (inactive)"}]}, {"molecule": "O=C(Cc1ccc(S(=O)(=O)N2CCOCC2)s1)Nc1ccc(Br)c(C(F)(F)F)c1", "values": [{"measurement": "IC50", "setting": "[6]", "value": "19.2 µM (inactive)"}, {"measurement": "IC50", "setting": "[7]", "value": "46.7 µM (inactive)"}, {"measurement": "IC50", "setting": "[8]", "value": "20.9 µM (inactive)"}]}, {"molecule": "COc1ccc2c3c(n(C)c2c1)[C@H](CO)N(C(=O)Nc1ccc(F)cc1)CC31CCN(C(=O)c2ccc3c(c2)OCO3)CC1", "values": [{"measurement": "AC50", "setting": "Paired box protein Pax-8", "value": "6.51 µM (active)"}, {"measurement": "AC50", "setting": "[9]", "value": "22.5 µM (active)"}, {"measurement": "AC50", "setting": "[10]", "value": "28.6 µM (active)"}, {"measurement": "AC50", "setting": "[11]", "value": "57.7 µM (active)"}, {"measurement": "AC50", "setting": "[12]", "value": "4.33 µM (active)"}, {"measurement": "AC50", "setting": "[13]", "value": "1.2 µM (active)"}, {"measurement": "AC50", "setting": "[14]", "value": "> 100 µM (inactive)"}, {"measurement": "AC50", "setting": "[15]", "value": "1.79 µM (active)"}, {"measurement": "AC50", "setting": "[16]", "value": "0.892 µM (active)"}, {"measurement": "AC50", "setting": "[17]", "value": "0.75 µM (active)"}]}, {"molecule": "Cc1ccccc1-c1ccc2c(c1)O[C@H](CN(C)C(=O)Nc1ccc(C(F)(F)F)cc1)[C@H](C)CN([C@H](C)CO)S2(=O)=O", "values": [{"measurement": "AC50", "setting": "Paired box protein Pax-8", "value": "9.06 µM (active)"}, {"measurement": "AC50", "setting": "[9]", "value": "14.3 µM (active)"}, {"measurement": "AC50", "setting": "[12]", "value": "> 70 µM (inactive)"}]}, {"molecule": "CO[C@H]1CN(C)C(=O)c2ccc(NC(=O)C3CC3)cc2OC[C@H](C)N(Cc2cc(F)ccc2F)C[C@@H]1C", "values": [{"measurement": "AC50", "setting": "[18]", "value": "0.851 µM (active)"}, {"measurement": "AC50", "setting": "[19]", "value": "59.9 µM (active)"}, {"measurement": "AC50", "setting": "[20]", "value": "0.668 µM (active)"}, {"measurement": "AC50", "setting": "[21]", "value": "1.5 µM (active)"}]}, {"molecule": "Cc1ccc(SCCC(=O)N/N=C/c2cccnc2)cc1", "values": [{"measurement": "IC50", "setting": "[6]", "value": "29.2 µM (inactive)"}, {"measurement": "IC50", "setting": "[7]", "value": "83.3 µM (inactive)"}, {"measurement": "IC50", "setting": "[8]", "value": "25.9 µM (inactive)"}]}, {"molecule": "Cc1ccc(/N=C2\\C(=O)Nc3ccccc32)cc1", "values": [{"measurement": "EC50", "setting": "Beta-galactosidase", "value": "> 40 µM (inactive)"}, {"measurement": "IC50", "setting": "[5]", "value": "> 40 µM (not active)"}]}]}
